The subject of one series is HCT116 cells. In words: MTT cytotoxicity screening, human colon cancer cell line HCT116. The class given is cell-based. From the text:
Human colon cancer cell line HCT116 can be used for the preliminary cytotoxicity screening of the disclosed compounds as disclosed by Mosmann, T., “Rapid colorimetric assay for cellular growth and survival: application to proliferation and cytotoxicity assays.” J. Immunol. Methods, (1983) 65(1-2): p. 55-63 referred to herein further as the “MTT test” which is incorporated herein by reference in its entirety.
The disclosure of Mosmann recites the following. “MTT 93-(4,5-dimethylthirazol-2-yl)-2,5-diphenyl tetrazolium bromide; Sigman catalog no. M2128) was dissolved in PBS at 5 mg/ml and filtered to sterilize and remove a small amount of insoluble residue present in some batches of MTT. At the times indicated below, stock MTT solution (10 ml per 100 ml) was added to all wells of an assay, and plates were incubated at 37° C. for 4 h. Acid-siopropanol (100 ml of 0.04 N HCl in isopropanol) was added to all wells and mixed thoroughly to dissolve the dark blue crystals. After a few minutes at room temperature to ensure that all crystals were dissolved, the plates were read o a Dynatech MR580Microelisa reader, using a test wavelength of 570 nm, a reference wavelength of 630 nm, and a calibration setting of 1.99 (or 1.0 if the samples were strongly colored). Plates were normally read within 1 h of adding the isopropanol.
“Our final procedure was to add 0.01 ml MTT (5 mg/ml in phosphate-buffered saline) to 0.1 ml cells in growth medium. After 4 h at 37° C. for MTT cleavage, the formazan product was solublilized by the addition of 0.1 ml 0.04 N HCl in isopropanol. Optical density was measured on a Dynatech MR 580 plate reader, using a reference wavelength of 630 nm and a test wavelength of 570 nm.” 3-(4,5-Dimethylthiazol-2-yl)-2,5-diphenyltetrazolium bromide, a tetrazole, can pass through cellular membrane to enter into cells. This tetrazole may be reduced to the purple formazan in the mitochondria of living cells, which can diffuse out to form crystals. This crystal can be dissolved in the dimethyl sulfoxide to form a colored solution. The absorbance of this colored solution can be quantified by measuring at certain wavelength (490 nm) using a spectrophotometer. The quantity of the formazan crystal is proportional to the number of living cells.
As used herein, cells were cultured in McCoy's 5A medium supplemented with 10% heat-inactivated Fetal Bovine Serum (FBS) and 5% Penicillin/Streptomycin solution. McCoy's 5A, 1× (Iwakata & Grace modified) medium with L-Glutamine, DPBS, 1× w/o Ca and Mg, Penicillin/Streptomycin solution, Trypsin EDTA, 1× and PBS, 1× w/o Ca and Mg were purchased from Mediatech, Inc. (USA). FBS was purchased from Hyclone (USA).
The cytotoxicity of the compounds was estimated using the MTT assay. A 96-well plate was seeded with 100 μl medium containing HCT116 cells in suspension at a density of 2.5×10^4 cells/ml. After 24 hours of incubation, the cells were treated with the compounds, which were dissolved in DMSO (dimethyl sulfoxide) as stock solutions and diluted to final concentrations of 100 μM, 50 μM, 25 μM, 12.5 μM, 6.25 μM & 1 μM (for compounds tested in the micromolar concentrations) and 10 μM, 1 μM, 500 nM, 250 nM, 125 nM & 62.5 nM (for compounds tested in the nanomolar concentration range) using medium containing 0.1% DMSO. The final concentration of DMSO in the culture medium was maintained at 0.1%-0.001% (v/v). After 48 hrs incubation in the presence of test compounds, the spent medium was removed and the wells were washed twice with 100 μL of PBS solution. 100 μL of fresh medium and 10 μL of MTT (5 mg/ml in PBS) was added to the wells and incubated at 37° C. in dark for 4 hrs. The formazan product was dissolved by adding 100 μL of 100% DMSO after removing the medium from each well and was stabilized by adding 12.5 μL of Sorensen's glycine buffer to each well. […]

The mark [1] stands for this setting: Homo sapiens, HCT-116, 48 hrs incubation, absorbance 490 nm, primary screening, read-out: IC50.
Setting [2] is: Homo sapiens, HCT-116, further evaluated after secondary screening (Table VIII), read-out: IC50 value.

Read-outs that look alike come from different tables or passages of the source.

As for “5,7-dimethoxy-8-(1-methyl-1,2,3,6-tetrahydropyridin-4-yl)-2-(3-methylphenyl)-4H-chromen-4-one [Compound F2]”, in the series on HCT116 cells (48 hrs incubation, absorbance 490 nm, primary screening, read-out: IC50), the IC50 (in general, the concentration that gives 50% inhibition) is 20.6 µM.
`COc1cc(OC)c(C2=CCN(C)CC2)c(O)c1C(=O)/C=C/c1ccccc1` [Compound A1, (E)-1-(2-Hydroxy-4,6-dimethoxy-3-(1-methyl-1,2,3,6-tetrahydropyridine-4-yl)phenyl)-3-phenylprop-2-en-1-one]: the half-maximal inhibitory concentration (IC50) in the series on HCT116 cells (setting [1]) stood at 10.1 µM.
As for `COc1cc(OC)c(C2=CCN(C)CC2)c(O)c1C(=O)/C=C/c1ccccc1Cl` [Compound A2, (E)-3-(2-chlorophenyl)-1-(2-hydroxy-4,6-dimethoxy-3-(1-methyl-1,2,3,6-tetrahydropyridine-4-yl)phenyl)-2-propylene-1-one], the melting point (as a rule, the temperature of the solid-liquid transition) was 184 to 185 °C. Moreover, in the series with HCT116 cells (setting [1]), the IC50 came out at 28.3 µM.
The like results for `COc1cc(OC)c(C2=CCN(C)CC2)c(O)c1C(=O)/C=C/c1ccccc1[N+](=O)[O-]` [Compound A3, (E)-1-(2-hydroxy-4,6-dimethoxy-3-(1-methyl-1,2,3,6-tetrahydropyridine-4-yl)phenyl)-3-(2-nitrophenyl)-2-propylene-1-one] were, in that order, 149 to 151 °C and 17.9 µM.
`COc1cccc(/C=C/C(=O)c2c(OC)cc(OC)c(C3=CCN(C)CC3)c2O)c1OC` [Compound A4, (E)-3-(2,3-dimethoxyphenyl)-1-(2-hydroxy-4,6-dimethoxy-3-(1-methyl-1,2,3,6-tetrahydropyridine-4-yl)phenyl)-2-propylene-1-one]: the melting point was in the range of 171 to 172 °C. Besides, the IC50 in the series with HCT116 cells (setting [1]) worked out at 5.22 µM. The IC50 with HCT116 cells (setting [2]) was above 1 µM.
On to `COc1cc(OC)c(C2=CCN(C)CC2)c(O)c1C(=O)/C=C/c1cccc(C)c1` [Compound A5, (E)-1-(2-hydroxy-4,6-dimethoxy-3-(1-methyl-1,2,3,6-tetrahydropyridine-4-yl)phenyl)-3-meta-methylphenyl-2-propylene-1-one], for which the melting point lay in the range of 165 to 166 °C. The IC50 in the series with HCT116 cells (setting [1]) was determined as 8.89 µM.
The like results for `COc1cccc(/C=C/C(=O)c2c(OC)cc(OC)c(C3=CCN(C)CC3)c2O)c1` [Compound A6, (E)-1-(2-hydroxy-4,6-dimethoxy-3-(1-methyl-1,2,3,6-tetrahydropyridine-4-yl)phenyl)-3-(3-methoxyphenyl)-2-propylene-1-one] were, in that order, 140 to 141 °C and 6.78 µM.
Take `COc1cc(OC)c(C2=CCN(C)CC2)c(O)c1C(=O)/C=C/c1cccc(Cl)c1` [Compound A7, (E)-3-(3-chlorophenyl)-1-(2-hydroxy-4,6-dimethoxy-3-(1-methyl-1,2,3,6-tetrahydropyridine-4-yl)phenyl)-2-propylene-1-one]: the melting point was in the range of 182 to 184 °C. The IC50 in the series with HCT116 cells (setting [1]) was found to be 3.24 µM.
Taken in the same sequence, the figures for `COc1cc(OC)c(C2=CCN(C)CC2)c(O)c1C(=O)/C=C/c1cccc([N+](=O)[O-])c1` [Compound A8, (E)-1-(2-hydroxy-4,6-dimethoxy-3-(1-methyl-1,2,3,6-tetrahydropyridine-4-yl)phenyl)-3-(3-nitrophenyl)-2-propylene-1-one] were 128 to 130 °C and 10.5 µM.
With `COc1cc(OC)c(C2=CCN(C)CC2)c(O)c1C(=O)/C=C/c1ccc(C)cc1` [Compound A9, (E)-1-(2-hydroxy-4,6-dimethoxy-3-(1-methyl-1,2,3,6-tetrahydropyridine-4-yl)phenyl)-3-(4-methylphenyl)-2-propylene-1-one], the melting point fell in the range of 150 to 151 °C. Besides, in the series on HCT116 cells (setting [1]), the IC50 was 3.87 µM.
As to `COc1ccc(/C=C/C(=O)c2c(OC)cc(OC)c(C3=CCN(C)CC3)c2O)cc1` [Compound A10, (E)-1-(2-hydroxy-4,6-dimethoxy-3-(1-methyl-1,2,3,6-tetrahydropyridine-4-yl)phenyl)-3-(4-methoxyphenyl)-2-propylene-1-one], the melting point lay in the range of 177 to 178 °C. Moreover, in the series with HCT116 cells (setting [1]), the concentration for half-maximal inhibition (IC50) came out at 11.8 µM.
`COc1cc(OC)c(C2=CCN(C)CC2)c(O)c1C(=O)/C=C/c1ccc(O)cc1` [Compound A11, (E)-1-(2-hydroxy-4,6-dimethoxy-3-(1-methyl-1,2,3,6-tetrahydropyridine-4-yl)phenyl)-3-(4-hydroxyphenyl)-2-propylene-1-one]: the melting point was in the range of 98 to 100 °C. The 50% inhibitory concentration (IC50) in the series on HCT116 cells (setting [1]) was found to be 88.2 µM.
The like results for `COc1cc(OC)c(C2=CCN(C)CC2)c(O)c1C(=O)/C=C/c1ccc(Cl)cc1` [Compound A12, (E)-3-(4-chlorophenyl)-1-(2-hydroxy-4,6-dimethoxy-3-(1-methyl-1,2,3,6-tetrahydropyridine-4-yl)phenyl)-2-propylene-1-one] were, in that order, 169 to 170 °C and 8.3 µM.
In turn, `COc1cc(OC)c(C2=CCN(C)CC2)c(O)c1C(=O)/C=C/c1ccc(Br)cc1` [Compound A13, (E)-3-(4-bromophenyl)-1-(2-hydroxy-4,6-dimethoxy-3-(1-methyl-1,2,3,6-tetrahydropyridine-4-yl)phenyl)-2-propylene-1-one] yielded a melting point of 164 to 165 °C. Besides, the IC50 in the series on HCT116 cells (setting [1]) is 8.76 µM.
With `COc1cc(OC)c(C(=O)/C=C/c2ccc(C)cc2)c(O)c1CN1CCCCC1` [Compound C1, (E)-1-(2-hydroxy-4,6-dimethoxy-3-(piperidin-1-ylmethyl)phenyl)-3-(4-methylphenyl)-2-propylene-1-one], in the series with HCT116 cells (setting [1]), the IC50 was found to be 5.57 µM.
Same read-out and setting: the result for `COc1cccc(/C=C/C(=O)c2c(OC)cc(OC)c(CN3CCCCC3)c2O)c1` [Compound C3, (E)-1-(2-hydroxy-4,6-dimethoxy-3-(piperidin-1-ylmethyl)phenyl)-3-(3-methoxyphenyl)-2-propylene-1-one] reads 2.85 µM.
Compound `COc1cc(OC)c(C(=O)/C=C/c2cccc(C)c2)c(O)c1CN1CCCCC1` [Compound C5] showed a melting point of 113 to 114 °C.
Same read-out and setting: the result for `COc1cc(OC)c(C(=O)/C=C/c2ccc(Br)cc2)c(O)c1CN1CCCCC1` [Compound C6] reads 99 to 100 °C; that for `COc1cc(OC)c(C(=O)/C=C/c2cccc(C)c2)c(O)c1CN1CCOCC1` [Compound D7, (E)-3-(3-methylphenyl)-1-(2-hydroxy-4,6-dimethoxy-3-(morpholinemethyl)-phenyl)-2-propylene-1-one], 158 to 159 °C; that for `COc1cc(OC)c(C(=O)/C=C/c2cc(OC)c(OC)c(OC)c2)c(O)c1CN1CCOCC1` [Compound D8, (E)-3-(3,4,5-trimethoxyphenyl)-1-(2-hydroxy-4,6-dimethoxy-3-(morpholinemethyl)-phenyl)-2-propylene-1-one], 169 to 170 °C.
Take `COc1cc(OC)c2c(=O)cc(-c3ccccc3)oc2c1C1=CCN(C)CC1` [Compound F1, 5,7-Dimethoxy-8-(1-methyl-1,2,3,6-tetrahydropyridin-4-yl)-2-phenyl-4H-chromen-4-one]: the IC50 in the series on HCT116 cells (setting [1]) worked out at 21.1 µM.
As to `CN1CC=C(c2c(O)cc(O)c3c(=O)cc(-c4ccccc4)oc23)CC1` [Compound G1, 5,7-hydroxy-8-(1-methyl-1,2,3,6-tetrahydropyridin-4-yl)-2-phenyl-4H-chromen-4-one], the IC50 in the series with HCT116 cells (setting [1]) was 3.76 µM.
As for `CN1CC[C@H](c2c(O)cc(O)c3c(=O)cc(-c4ccccc4Cl)oc23)[C@H](O)C1` [flavopiridol, reference compound], the IC50 with HCT116 cells (setting [2]) was around 0.13 µM.

Source of the values: patent publication US20120121692A1, “COMPOUNDS AND COMPOSITIONS COMPRISING CDK INHIBITORS AND METHODS FOR TREATING CANCER” (SHANDONG UNIVERSITY, priority 2009, published 2012).
